Experiments:
[1] = test system: RG2 cells (rat glioblastoma tumor model); assay: In vivo PDT in rat glioblastoma; details: ALA mediated PDT in RG2 tumor model; comparison
Procedure: A four-month old rat was injected in the cerebral cortex with 5000 RG2 cells (rat glioblastoma tumor model). Eleven days later, the rat was injected with TLD1433 (5 mg/kg) with human apo-transferrin.
PDT was administered 24 hours later. Light source and fluence: 808 nm wavelength, 300 J/cm^2 delivered at 100 mW. The number of photons absorbed was 2.8×10^17 photons/cm^3.
A five-month old rat was injected in the cerebral cortex with 5000 RG2 cells. Eleven days later, the rat was injected with TLD1433 (5 mg/kg) with human apo-transferrin. PDT was administered 24 hours later. Light source and fluence: 808 nm wavelength, 600 J/cm^2 delivered at 200 mW. The number of photons absorbed was 4.41×10^18 photons/cm^3.

[2] = Absorbance / optical density with transferrin or OPTIFERRIN; format: physicochemical; details: novel absorption in the red (600 nm) and near infrared (800 nm)
Procedure: Transferrin (0.2 mg/mL) was incubated with different photosensitizers (10 uM) and the absorbance spectra were obtained. […] Note that a large relative increase in absorbance may be accompanied by a small absolute difference and vice versa.
The optical density of TLD1433 was measured before and after the addition of either OPTIFERRIN (available from InVitria, a division of Ventria Bioscience) or human apo-transferrin (Sigma). […] This finding highlights the potential of using OPTIFERRIN to increase the efficacy of Theralase's TLD1433 photosensitizer. The increase in optical density will translate to a higher production of reactive oxygen species during PDT treatment. The absorption in red and near infrared light will allow for novel treatment applications for different tumors.

[3] = cited from earlier work

NCC(=O)CCC(=O)O [aminolevulinic acid]
post PDT survival [1]: 8 days

TLD1433-OPTIFERRIN complex: complex of TLD1433 with OPTIFERRIN, a recombinant human transferrin
optical density after addition of OPTIFERRIN [2]: substantial increase in optical density

Cn1nnc2c(C(N)=O)ncn2c1=O [temozolomide]
half-life [3]: approximately 1.8 hours

Source: patent US10111936B2, “Metal-glycoprotein complexes and photodynamic therapy of immune privileged sites with same” (Theralase Technologies, Inc., priority 2015, dated 2018)
